{"source": "patent US20250177467A1", "about": "“COMPOSITIONS AND METHODS FOR MODULATING NUCLEAR FACTOR OF ACTIVATED T-CELLS (NFAT) ACTIVITY OF T CELLS” (Yale University, priority 2022, published 2025)", "key": {"[1]": {"system": "Lck, Fyn, Zap70, LAT and Pyk2", "assay": "Western blot of protein phosphorylation of T cell receptor downstream cascades in Jurkat cells", "type": "cell-based", "settings": "45 min", "method": "FIGS. 8A-8D are western blot analyses showing effects of YIV-906 (FIG. 8A), single herbs (FIG. 8A), the fractions of YIV-906 (FIG. 8B), P (FIG. 8C), and S (FIG. 8D) on protein phosphorylation of T cell receptor signaling cascades including, Lck, Fyn, Zap70, LAT and Pyk2. […] All eluted fractions were dried and reconstituted with water to equivalent concentration at 100 mg/ml. Jurkat cells were treated with YIV-906 (FIG. 8A), single herbs (FIG. 8A), the fractions of YIV-906 (FIG. 8B), P (FIG. 8C), and S (FIG. 8D) at equivalent dose 320 ug/ml for 45 min. Western blot analysis was used to determine the protein phosphorylation using specific antibodies. GAPDH was used to normalize the protein loading.\nFIGS. 9A-9B show chemical identification of fractions of P (FIG. 9A) and S (FIG. 9B) after C18 column fractionation and their impacts on protein phosphorylation for Lck, Zap70, Lat, Fyn/Src, Pyk2. Equivalent concentration, 10 mg/ml, was used for LC-MS analysis. Equivalent concentration, 320 ug/ml for 45 min, was used for treating Jurkat cells for western blotting analysis. Identified chemicals (putative), based on their mass and mass of their fragments, were listed under each fraction. Non-identified chemical was not listed in this figure. Fraction could induce phosphorylation of specific protein was indicted as red upward arrow.\nFIG. 10 show effects of S and P compounds on protein phosphorylation of T cell receptor signaling cascades including, Lck, Fyn, Zap70, LAT and Pyk2. Jurkat cells were treated with S and P compounds for 45 min. Western blot analysis was used to determine the protein phosphorylation using specific antibodies.\nJurkat-PD1 cells 10^6/ml were placed in 24 well plate treated with YIV-906 or its components herbs for 45 minutes. After spinning down the cells at 1000 g centrifugation for 10 min, red blood cells were lysed with 1 ml BD pharm lyse on ice. Cells were collected at 1000 g centrifugation for 10 min. 2×10^6 cells were used for each staining sample. The cells were prepared with 2X protein loading buffer (Tris pH 6.8 1M, SDS 1%, glycerol, B-mercaptoethanol, bromophenol blue, distilled water). The samples were then heated to 95° C. for 5 minutes to denature the proteins prior to western blot. SDS polyacrylamide gel electrophoresis (10% Mini-Protean TGX™ Precast Protein Gels, BioRad) was used to separate proteins according to their electrophoretic mobility. The protein extractions were deposited in the wells of the gel, 10 μL per well. The migration was performed in a 1X running buffer (Tris/Glycine/SDS) at 180 V for 50 minutes. The transfer of the proteins was performed on a PVDF membrane in the transfer buffer (Tris-CAPS AX, methanol, SDS 10%, distilled water) at 75 V for 1 hour. The non-specific binding sites on the PVDF membrane were blocked with a blocking solution (3% milk powder and 1X TBS-T) for 30 minutes. Then, the PVDF membrane was incubated with the primary antibody against the proteins of interest overnight at 4° C. The information of primary antibodies is as follows: P-Lck-Y394 (Biolegend, #933101), P-Zap70-Y319 (Cell signaling, #2717), P-LAT-Y191 (Cell signaling, #3584) P-SRC (Fyn) Y416 (Cell, signaling, #6943), P-Pyk2-Y402 (Cell signaling, 3291), GAPDH (Cell Signaling, #5174). […] Image-J was used to quantify the total intensity of immunoreactive bands. […]"}, "[2]": {"molecular_target": "T1, SHP2 (Homo sapiens, UniProt Q06124)", "T1 sequence (Q06124 1-593)": "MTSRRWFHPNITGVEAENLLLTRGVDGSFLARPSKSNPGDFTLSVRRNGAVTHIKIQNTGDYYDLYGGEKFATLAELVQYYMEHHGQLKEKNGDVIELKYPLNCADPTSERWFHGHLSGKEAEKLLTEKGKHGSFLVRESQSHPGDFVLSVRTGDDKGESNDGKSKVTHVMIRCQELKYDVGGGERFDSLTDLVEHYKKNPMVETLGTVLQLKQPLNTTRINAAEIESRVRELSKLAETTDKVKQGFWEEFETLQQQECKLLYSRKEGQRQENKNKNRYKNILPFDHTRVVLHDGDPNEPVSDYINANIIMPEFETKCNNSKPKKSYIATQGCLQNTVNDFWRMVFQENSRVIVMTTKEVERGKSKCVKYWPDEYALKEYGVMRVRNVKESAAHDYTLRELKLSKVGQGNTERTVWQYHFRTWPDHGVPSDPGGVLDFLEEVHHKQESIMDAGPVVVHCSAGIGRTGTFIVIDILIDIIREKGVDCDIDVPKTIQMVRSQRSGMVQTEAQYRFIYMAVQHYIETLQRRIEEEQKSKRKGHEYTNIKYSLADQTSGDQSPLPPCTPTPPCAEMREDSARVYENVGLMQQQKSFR", "assay": "SHP2 activity, p-Nitrophenyl Phosphate (pNPP) colorimetric assay", "type": "biochemical", "settings": "40 uM"}, "[3]": {"system": "NFAT mediated transcriptional activity of Jurkat cells", "assay": "NFAT luciferase reporter in Jurkat(-PD1) cells co-cultured with wild type Raji or Raji-PD-L1 cells without or with SEE", "type": "cell-based", "settings": "for inhibition on NFAT activity of Jurkat cells: presence of SEE; for modulation effect on basal NFAT activity: absence of SEE, wild type Raji or PD-L1 over-expressed Raji cells; for modulation of basal NFAT activity: S compounds up to 40 uM; for inhibition of SEE triggered NFAT activity: at 20 to 40 uM, SEE 10 ng/ml"}, "[4]": {"system": "NFAT mediated transcriptional activity of Jurkat-PD1 TCRαβ knockout cells", "assay": "NFAT luciferase reporter in TCRαβ knockout Jurkat-PD1 cells", "type": "cell-based"}, "[5]": {"molecular_target": "CD19 naturally expressed on the cell surface of Raji cells (UniProt P15391)", "sequence (P15391 20-556 limits assumed)": "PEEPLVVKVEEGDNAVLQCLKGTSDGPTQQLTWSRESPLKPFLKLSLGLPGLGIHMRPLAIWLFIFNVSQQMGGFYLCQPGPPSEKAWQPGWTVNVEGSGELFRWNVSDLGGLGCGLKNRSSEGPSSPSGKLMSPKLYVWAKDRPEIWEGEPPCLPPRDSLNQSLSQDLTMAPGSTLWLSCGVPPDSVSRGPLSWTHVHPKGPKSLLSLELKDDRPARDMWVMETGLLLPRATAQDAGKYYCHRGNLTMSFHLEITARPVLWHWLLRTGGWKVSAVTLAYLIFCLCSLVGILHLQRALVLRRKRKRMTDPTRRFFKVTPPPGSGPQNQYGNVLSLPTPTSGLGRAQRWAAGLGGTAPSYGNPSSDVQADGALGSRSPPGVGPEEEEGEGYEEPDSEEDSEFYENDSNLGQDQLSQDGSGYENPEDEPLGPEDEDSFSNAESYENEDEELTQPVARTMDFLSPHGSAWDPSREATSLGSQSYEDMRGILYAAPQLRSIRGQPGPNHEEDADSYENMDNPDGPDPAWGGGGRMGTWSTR", "assay": "cell-based or functional assay"}, "[6]": {"settings": "Jurkat-PD1 with wild type Raji or PD-L1 over-expressed Raji cells, without SEE"}}, "data": [{"molecule": "O=C(O)[C@H]1O[C@@H](Oc2cc3oc(-c4ccccc4)cc(=O)c3c(O)c2O)[C@H](O)[C@@H](O)[C@@H]1O", "note": "[Baicalin]", "values": [{"measurement": "induction effect on P-Zap70-Y319, P-SRC (Fyn)-Y416 and P-Pyk2-Y402", "setting": "[1]; 40 uM", "result": "some induction effect"}, {"measurement": "inhibitory effect on SHP2, S compounds", "setting": "[2]", "result": "showed inhibitory effect on SHP2"}]}, {"molecule": "COc1ccc2c(c1O)-c1c(O)c(OC)cc3c1[C@H](C2)[N+](C)(C)CC3", "note": "[Magnoflorine]", "values": [{"measurement": "inhibition on NFAT activity of Jurkat cells", "setting": "[3]; Z compound up to 40 uM", "result": "showed inhibition on NFAT activity"}]}, {"molecule": "O=C1C[C@@H](c2ccc(O)cc2)Oc2cc(O)ccc21", "note": "[liquiritigenin]", "values": [{"measurement": "modulation effect on basal NFAT activity", "setting": "[3]; 40 uM", "result": "some modulation effect"}]}, {"molecule": "Anti-PD1: antibody produced from Nivolumab clone; InVivoSIM anti-human PD-1 (Nivolumab Biosimilar)", "values": [{"measurement": "rescue of depressed NFAT activity (due to the interaction of PD1 and PD-L1) in Jurkat-PD1 cells", "setting": "[3]; Raji-PD-L1 cells, SEE 10 ng/ml or 30 ng/ml, YIV-906 160 ug/ml, nivolumab biosimilar 18 ug/ml", "result": "rescued the depressed NFAT activity"}]}, {"molecule": "COc1c(O)cc2oc(-c3ccccc3)cc(=O)c2c1O", "note": "[oroxylin A]", "values": [{"measurement": "modulation of basal NFAT activity", "setting": "[3]; [6]", "result": "could modulate the basal NFAT activity"}, {"measurement": "inhibition of SEE triggered NFAT activity", "setting": "[3]", "result": "could inhibit SEE triggered NFAT activity"}, {"measurement": "impact on NFAT activity, Jurkat-PD1 versus Jurkat-PD1 TCRαβ KO cells", "setting": "[4]", "result": "very similar impact on NFAT activity"}, {"measurement": "inhibitory effect on SHP2, S compounds", "setting": "[2]", "result": "showed inhibitory effect on SHP2"}]}, {"molecule": "O=C(/C=C/c1ccc(O)cc1)c1ccc(O)cc1O", "note": "[Isoliquiritigenin]", "values": [{"measurement": "modulation effect on basal NFAT activity", "setting": "[3]; 10 uM", "result": "some modulation effect"}, {"measurement": "inhibition on NFAT activity of Jurkat cells", "setting": "[3]; 40 uM", "result": "showed inhibition on NFAT activity"}]}, {"molecule": "COc1c(CC=C(C)C)c(O)cc2oc(=O)c(-c3ccc(O)cc3O)cc12", "note": "[glycycoumarin]", "values": [{"measurement": "modulation effect on basal NFAT activity", "setting": "[3]; 10 uM", "result": "some modulation effect"}]}, {"molecule": "O=c1cc(-c2ccccc2)oc2cc(O)c(O)c(O)c12", "note": "[baicalein]", "values": [{"measurement": "modulation of basal NFAT activity", "setting": "[3]; [6]", "result": "could modulate the basal NFAT activity"}, {"measurement": "inhibition of SEE triggered NFAT activity", "setting": "[3]", "result": "could inhibit SEE triggered NFAT activity"}, {"measurement": "impact on NFAT activity, Jurkat-PD1 versus Jurkat-PD1 TCRαβ KO cells", "setting": "[4]", "result": "very similar impact on NFAT activity"}, {"measurement": "induction of protein phosphorylation of all examined proteins (Lck, Zap70, LAT, Fyn, Pyk2)", "setting": "[1]; 40 uM", "result": "could strongly induce protein phosphorylation of all examined proteins"}, {"measurement": "inhibitory effect on SHP2, S compounds", "setting": "[2]", "result": "showed inhibitory effect on SHP2"}]}, {"molecule": "CC1(C)[C@@H](O[C@H]2O[C@H](C(=O)O)[C@@H](O)[C@H](O)[C@H]2O[C@@H]2O[C@H](C(=O)O)[C@@H](O)[C@H](O)[C@H]2O)CC[C@]2(C)[C@H]3C(=O)C=C4[C@@H]5C[C@@](C)(C(=O)O)CC[C@]5(C)CC[C@@]4(C)[C@]3(C)CC[C@@H]12", "note": "[Glycyrrhizic acid]", "values": [{"measurement": "inhibitory effect on SHP2, G compounds", "setting": "[2]", "result": "relatively higher inhibitory effects on SHP2 than other G compounds"}]}, {"molecule": "CC1(C)[C@@H](O)CC[C@]2(C)[C@H]3C(=O)C=C4[C@@H]5C[C@@](C)(C(=O)O)CC[C@]5(C)CC[C@@]4(C)[C@]3(C)CC[C@@H]12", "note": "[glycyrrhetinic acid]", "values": [{"measurement": "inhibitory effect on SHP2, G compounds", "setting": "[2]", "result": "relatively higher inhibitory effects on SHP2 than other G compounds"}]}, {"molecule": "O=C1C[C@@H](c2ccc(O[C@@H]3O[C@H](CO)[C@@H](O)[C@H](O)[C@H]3O)cc2)Oc2cc(O)ccc21", "note": "[liquiritin]", "values": [{"measurement": "modulation effect on basal NFAT activity", "setting": "[3]; 20 uM", "result": "some modulation effect"}]}, {"molecule": "C=CC(C)(C)c1cc(/C=C/C(=O)c2ccc(O)cc2)c(OC)cc1O", "note": "[licochalcone A]", "values": [{"measurement": "inhibition on NFAT activity of Jurkat cells", "setting": "[3]; 40 uM", "result": "showed inhibition on NFAT activity"}, {"measurement": "modulation effect on basal NFAT activity", "setting": "[3]; 10-20 uM", "result": "some modulation effect"}]}, {"molecule": "C[C@@]12C[C@@]3(O)O[C@@H](O1)[C@]1(COC(=O)c4ccccc4)[C@H]3C[C@@]12O[C@@H]1O[C@H](CO)[C@@H](O)[C@H](O)[C@H]1O", "note": "[Paeoniforin]", "values": [{"measurement": "inducing P-Zap70-Y319 and P-Pyk2-Y402", "setting": "[1]", "result": "some effect"}]}, {"molecule": "C[C@]12C[C@@H](O)[C@@H]3C[C@@]1(O[C@@H]1O[C@H](CO)[C@@H](O)[C@H](O)[C@H]1O)[C@@]3(COC(=O)c1ccccc1)C(=O)O2", "note": "[Albiforin]", "values": [{"measurement": "inducing P-Zap70-Y319 and P-Pyk2-Y402", "setting": "[1]", "result": "some effect"}]}, {"molecule": "COc1c(O[C@@H]2O[C@H](C(=O)O)[C@@H](O)[C@H](O)[C@H]2O)cc(O)c2c(=O)cc(-c3ccccc3)oc12", "note": "[wogonoside]", "values": [{"measurement": "inhibitory effect on SHP2, S compounds", "setting": "[2]", "result": "showed inhibitory effect on SHP2"}]}, {"molecule": "COc1c(O[C@@H]2O[C@H](C(=O)O)[C@@H](O)[C@H](O)[C@H]2O)cc2oc(-c3ccccc3)cc(=O)c2c1O", "note": "[oroxylin A 7-O-beta-D-glucuronide]", "values": [{"measurement": "modulation of basal NFAT activity", "setting": "[3]; [6]", "result": "could modulate the basal NFAT activity"}, {"measurement": "dose required to achieve 2-fold activity of NFAT", "setting": "[3]; basal, without SEE, Jurkat-PD1 with wild type Raji or PD-L1 over-expressed Raji cells", "result": 40, "unit": "µM"}, {"measurement": "impact on NFAT activity, Jurkat-PD1 versus Jurkat-PD1 TCRαβ KO cells", "setting": "[4]", "result": "very similar impact on NFAT activity"}, {"measurement": "induction effect on P-Zap70-Y319, P-SRC (Fyn)-Y416 and P-Pyk2-Y402", "setting": "[1]; 40 uM", "result": "some induction effect"}, {"measurement": "inhibitory effect on SHP2, S compounds", "setting": "[2]", "result": "showed inhibitory effect on SHP2"}]}, {"molecule": "chimeric antigen receptor (CAR-CD19-CD3zeta) on Jurkat-PD1 NFAT-luc cells", "values": [{"measurement": "NFAT activity of Jurkat-PD1 CAR-CD19 cells co-cultured with Raji (NFAT luciferase reporter)", "setting": "[5]", "result": 40, "unit": "fold"}]}]}
